Assay results published in patent US4179467A, “Dopamine hydroxylase inhibiting 2-amino-cyclopent-1-ene-1-thiocarboxylic acid-disulfides” (Richter Gedeon Vegyeszeti Gyar Rt., priority 1976, dated 1979).
Like-named read-outs stand apart in the source and are kept apart here.

Experiments:
[1] = system: dopamine-β-hydroxylase; settings: literature, cited from earlier work; for dopamine-β-hydroxylase inhibiting effects, in words / duration of dopamine-β-hydroxylase inhibiting effect, in words: known compounds
[2] = system: dopamine-β-hydroxylase; assay: Noradrenaline and dopamine levels of the cerebrum (brain) in rats, % of controls; assay type: in vivo, male Wistar rats; settings: rat, i.p., 400 mg/kg, time not given
Experimental: The dopamine-β-hydroxylase inhibiting effects of the new compounds according to the invention were examined by the following tests:
(§1) The tests were performed on male Wistar rats weighing 150 to 200 g. The dopamine-β-hydroxylase inhibiting effects of the compounds were evaluated by determining the change of noradrenaline, dopamine and adrenaline levels of the cerebrum, heart, spleen and adrenal gland. The serotonine and 5-hydroxy-indolylacetic acid levels of the cerebrum were also determined. The measurements were performed as follows:
(§2) The animals were decapitated, the cerebrum, heart, spleen and adrenal gland were removed quickly, and the organs were frozen by placing them on a metal sheet cooled with dry ice. The frozen organs were stored for a maximum of one night at -20° C.
The organs were weighed in the frozen state and then homogenized in 5.0 ml of 0.4 N perchloric acid containing 0.05% of EDTA-Naa and 0.1% of Na2 S2 O5. The homogenized mixtures were centrifuged as described above for the treatment of adrenal gland, the supernatants were decanted, and the pH was adjusted to 8.0±0.1 with a 0.1 molar tris buffer containing 20 g/l of NaOH and 25 g/l of EDTA-Na2. 100 mg of prepared Al2 O3 (Anton et al.: J. Pharm. Ther. 138, 360 (1962)) were added to the samples, and the mixtures were shaken mechanically for 20 minutes. Thereafter the Al2 O3 was washed with 2×10 ml of distilled water, and noradrenaline was eluted with 1.0 ml of 0.05 N perchloric acid. 0.5 ml samples of the eluate were used for the determination of noradrenaline. Noradrenaline was determined according to the method of Shellenberger et al. (Anal. Biochem. 39, 356 (1971)), with the following modifications of the basic procedure: 0.5 ml of 0.1 molar Na-K-phosphate buffer, containing 9 g/l of EDTA-Na2, were added to 0.5 ml of the eluate, and the catecholamines (noradrenaline in the examination of heart and spleen and noradrenaline and dopamine in the examination of the cerebrum) were oxidized with 0.1 ml of a 0.1 N iodine solution in 5% potassium iodide. After exactly 2 minutes, oxidation was stopped by adding 0.25 ml of a 2.5% sodium sulfite solution in 4.4 N aqueous sodium hydroxide to the mixture. 2 minutes after the introduction of the alkaline sulfite solution, 0.2 ml of concentrated acetic acid was added to the samples, whereupon the pH decreased to 4.4 to 4.5. Thereafter the samples were placed for 5 minutes in a drying oven heated to 100° C., and then the samples were cooled with ice water. The fluorescency of noradrenaline was measured with an OPTON spectrophotometer at wavelengths of 380 nm (excitation) and 490 nm (emission).
The brains were homogenized in 10 parts by volume of 0.4 N perchloric acid. The homogenized mixture was stored at -20° C. overnight; thereafter it was thawed and centrifuged as described above. A sample of the homogenized mixture corresponding to 0.5 g of brain was removed, the pH of the sample was adjusted to 8.0±0.1 with 0.1 molar tris-buffer of the above composition, and the sample was processed as described above for the determination of the noradrenaline content of heart and spleen, with the difference that 1.5 ml of 0.05 N perchloric acid was used as the eluting agent. 0.5 ml of the eluate was used to determine the noradrenaline and dopamine contents. The measurement was performed as described above, with the difference that samples of 0.5 ml were applied for the recording of the flourescence of noradrenaline. The residue was placed for 50 minutes into a drying oven heated to 100° C., thereafter the sample was cooled with ice water, and the fluorescence of dopamine was recorded at wavelengths of 325 nm (excitation) and 380 nm (emission).
In a further test series the serotonine and 5-hydroxy-indolylacetic acid contents were also determined, in addition to the determination of the noradrenaline and dopamine content, from the same sample. […]

[3] = in vivo; settings: mouse, in vivo, mice
[4] = system: serotonine and 5-hydroxy-indolylacetic acid levels of the cerebrum; assay: Serotonine and 5-hydroxy-indolylacetic acid levels of the cerebrum (brain) in rats, % of controls; assay type: in vivo, male Wistar rats; settings: rat; for response vs control in vivo at 500 mg/kg: po, p.o.
Experimental: as §1, §2
In a further test series the serotonine and 5-hydroxy-indolylacetic acid contents were also determined, in addition to the determination of the noradrenaline and dopamine content, from the same sample. In this instance the brains were homogenized in 10 ml of 75% ethanol, 0.2 ml of EDTA-Na2 and 5% of ascorbic acid were added to the homogenized mixtures, and the homogenized mixtures were maintained at -20° C. overnight. The mixtures were centrifuged as described above, and 5.0 ml samples of the supernatant were removed. The samples were diluted with equal volumes of distilled water, and poured onto ion exchange columns of 0.5×1.5 cm dimensions, filled with buffered Amberlite CG-30 (200 to 400 mesh). The columns were washed with 5 ml of distilled water followed by 1.0 ml of 0.2 N hydrochloric acid, and the first effluent and the aqueous wash were collected for the determination of 5-hydroxy-indolylacetic acid. Elution was continued with a further 1.2 ml quantity of 0.2 N hydrochloric acid in order to remove noradrenaline, dopamine and serotonine. Samples of 0.3 ml were used for the determinations.
Noradrenaline and dopamine were determined by the method of Shellenberger, modified as described above, whereas serotonine was determined by the method of Curzon et al. (Brit. J. Pharmacol. 39, 653 (1970)). The basic method was modified as follows: A 0.5% solution of ortho-phthal(di)aldehyde in absolute ethanol was diluted with […] hydrochloric acid to 50-fold of its original volume, and 0.6 ml of the resulting 0.01% ortho-phthal(di)aldehyde solution were added immediately to 0.5 ml of the serotonine-containing sample. The sample was placed in a hot water bath for 10 minutes, thereafter cooled with tap water, and the flourescence was recorded at wavelengths of 360 nm (excitation) and 490 nm (emission).
5-Hydroxy-indolylacetic acid was determined from the mixture of the first effluent and the aqueous wash. 10 ml of distilled water and 0.2 ml of concentrated hydrochloric acid were added to the mixture, and the sample was poured onto a 0.8×4.0 cm column filled with Sephadex G-10. The column was washed with 15 ml of 0.1 N hydrochloric acid followed by 1.8 to 2.0 ml of 0.02 N aqueous ammonia, and then 5-hydroxy-indolylacetic acid was eluted with further 2.0 ml of the aqueous ammonia. 0.5 ml samples were used in the measurements, and the determination was performed according to the method of Korf et al. (Biochem. Pharmacol. 20, 659 (1971)).
In the tests disulfiram, 2,2-dipyridyl, bis(1-methyl-4-homopiperazinyl-thiocarbonyl)-disulfide, sodium diethyldithiocarbamate and N-phenyl-N'-(2-thiazolyl)-thiourea were used as reference substances. The values indicated in Table 1 are the percentages in relation to the amine levels of the controls measured in the same tests (±standard error). The statistical calculations were performed on a TPA/i type computer, using Student's t test.

[5] = ip, i.p., 4 hours, read-out: Brain 5-HIAA level (percentages in relation to the controls)
[6] = ip, i.p., 4 hours, read-out: Brain SE level (percentages in relation to the controls)
[7] = ip, i.p., 8 hours, read-out: Brain 5-HIAA level (percentages in relation to the controls)
[8] = ip, i.p., 8 hours, read-out: Brain SE level (percentages in relation to the controls)

Compound | dopamine-β-hydroxylase inhibiting effects, in words [1] | LD50 ([3]; ip) [mg/kg] | response vs control in vivo at 200 mg/kg [4, 6] [%] | response vs control in vivo at 200 mg/kg [4, 8] [%] | also measured
NOCc1ccccc1 [Benzyloxyamine] | exert dopamine-β-hydroxylase inhibiting effects | – | – | – | duration of dopamine-β-hydroxylase inhibiting effect, in words [1]: only active for a short period
CCN(CC)C(=S)[S-].[Na+] [DDC-Na, sodium diethyldithiocarbamate] | – | – | – | – | Brain DA level (percentages in relation to the controls) [2]: 120%; Brain NA level (percentages in relation to the controls) [2]: 64.1%
CN1CCCN(C(=S)SSC(=S)N2CCCN(C)CC2)CC1 [FLA-63, bis(1-methyl-4-homopiperazinyl)-thiocarbonyl-disulfide] | – | 150 | – | – | dopamine-β-hydroxylase inhibition in vivo, in words ([1]; in vivo conditions): one of the most potent dopamine-β-hydroxylase inhibitors under in vivo conditions; response vs control in vivo at 50 mg/kg [4, 5]: 134%; response vs control in vivo at 50 mg/kg [4, 6]: 124%
CCCCc1ccc(C(=O)O)nc1 [Fusaric acid, 5-butyl-picolinic acid] | strong dopamine-β-hydroxylase inhibiting effects | – | – | – | LD50 ([3]; po): 230 ± 25 mg/kg
NNc1nncc2ccccc12 [Hydralazine] | possess dopamine-β-hydroxylase inhibiting effects | 83 | – | – | –
NC1=C(C(=S)SSC(=S)C2=C(N)CCC2)CCC1 [M-1] | – | ~800 | 115 ± 4.7 | 111 ± 5.1 | response vs control in vivo at 200 mg/kg [4, 5]: 152%; response vs control in vivo at 200 mg/kg [4, 7]: 125 ± 10.7%
CCCCNC1=C(C(=S)SSC(=S)C2=C(NCCCC)CCC2)CCC1 [M-2, 2-(N-butyl)-amino-cyclopent-1-ene-thiocarboxylic acid-disulfide] | – | – | 97.6 | 97.3 ± 11.3 | –
S=C(SSC(=S)C1=C(NC2CCCCC2)CCC1)C1=C(NC2CCCCC2)CCC1 [M-5, 2-(N-cyclohexyl)-amino-cyclopent-1-ene-thiocarboxylic acid disulfide] | – | > 1000 | 104 ± 7.6 | 105 ± 4.5 | response vs control in vivo at 200 mg/kg [4, 5]: 143 ± 8%; response vs control in vivo at 200 mg/kg [4, 7]: 178 ± 10.8%
CCNC1=C(C(=S)SSC(=S)C2=C(NCC)CCC2)CCC1 [M-6, 2-(N-ethyl)-amino-cyclopent-1-ene-thiocarboxylic acid-disulfide] | – | 1000 to 1500 | 112 ± 5.2 | 104 ± 7.4 | response vs control in vivo at 100 mg/kg ([4]; ip, i.p., 100 mg/kg, 4 hours, read-out: Brain SE level (percentages in relation to the controls)): 107 ± 2.2%; response vs control in vivo at 200 mg/kg [4, 5]: 155 ± 8.5%; response vs control in vivo at 200 mg/kg [4, 7]: 195 ± 4.8%; response vs control in vivo at 500 mg/kg ([4]; 4 hours, read-out: Brain SE level (percentages in relation to the controls)): 118 ± 4.6%; response vs control in vivo at 500 mg/kg ([4]; 8 hours, read-out: Brain SE level (percentages in relation to the controls)): 91.2 ± 0.9%
C=CCNC1=C(C(=S)SSC(=S)C2=C(NCC=C)CCC2)CCC1 [M-7, 2-(N-allyl)-amino-cyclopent-1-ene-thiocarboxylic acid-disulfide] | – | > 1000 | 113 ± 8 | 108 | response vs control in vivo at 200 mg/kg [4, 5]: 117 ± 6.5%; response vs control in vivo at 200 mg/kg [4, 7]: 126 ± 10.5%
O=C(CO)c1coc(=O)c2c(O)cccc12 [Oosponol] | strong dopamine-β-hydroxylase inhibiting effects | 40 | – | – | LD50 ([3]; po): 280 mg/kg
CC(N)Cc1ccccc1 (stereo not shown) [amphetamine] | possess dopamine-β-hydroxylase inhibiting effects | – | – | – | –
NNCc1ccccc1 [benzylhydrazine] | exert dopamine-β-hydroxylase inhibiting effects | – | – | – | duration of dopamine-β-hydroxylase inhibiting effect, in words [1]: only active for a short period
CCN(CC)C(=S)S [diethyl dithiocarbamate] | strong dopamine-β-hydroxylase inhibiting effects | – | – | – | –
Cn1cc[nH]c1=S [methimazol] | possess dopamine-β-hydroxylase inhibiting effects | – | – | – | –
Dopastine | strong dopamine-β-hydroxylase inhibiting effects | – | – | – | –
